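48-hour exposure; five concentrations; linearly interpolated endpoints. GI50 marks 50% less growth.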 Activity calls are given as the source filed them. Cut-off read from the data, not from the text of the source: active = GI50 up to about 1.1 µM and inactive = higher.
How the values were obtained:
Assay in all cases: NCI tumour cell line growth inhibition, 48 h
786-0 = test system: 786-0
A549 = test system: A549
ACHN = test system: ACHN
CCRF-CEM = test system: CCRF-CEM
COLO 205 = test system: COLO 205
DLD-1 = test system: DLD-1
DMS-114 = test system: DMS-114
DMS-273 = test system: DMS-273
EKVX = test system: EKVX
HCC 2998 = test system: HCC 2998
HCT-116 = test system: HCT-116
HCT-15 = test system: HCT-15
HL-60 = test system: HL-60
HOP-62 = test system: HOP-62
HT-29 = test system: HT-29
IGROV-1 = test system: IGROV-1
K562 = test system: K562
KM-20L2 = test system: KM-20L2
KM12 = test system: KM12
LOX IMVI = test system: LOX IMVI
LXFL 529 = test system: LXFL 529
M14 = test system: M14
M19-MEL = test system: M19-MEL
MOLT-4 = test system: MOLT-4
Malme-3M = test system: Malme-3M
NCI-H226 = test system: NCI-H226
NCI-H23 = test system: NCI-H23
NCI-H460 = test system: NCI-H460
NCI-H522 = test system: NCI-H522
OVCAR-3 = test system: OVCAR-3
OVCAR-8 = test system: OVCAR-8
RPMI-8226 = test system: RPMI-8226
RXF 393 = test system: RXF 393
SF-268 = test system: SF-268
SF-295 = test system: SF-295
SF-539 = test system: SF-539
SK-MEL-28 = test system: SK-MEL-28
SK-OV-3 = test system: SK-OV-3
SN12C = test system: SN12C
SNB-19 = test system: SNB-19
SNB-75 = test system: SNB-75
SNB-78 = test system: SNB-78
SR = test system: SR
SW-620 = test system: SW-620
TK-10 = test system: TK-10
U-251 = test system: U-251
UACC-257 = test system: UACC-257
UACC-62 = test system: UACC-62
UO-31 = test system: UO-31
A498 = test system: A498
CAKI-1 = test system: CAKI-1
HOP-92 = test system: HOP-92
OVCAR-4 = test system: OVCAR-4
OVCAR-5 = test system: OVCAR-5
SK-MEL-2 = test system: SK-MEL-2
SK-MEL-5 = test system: SK-MEL-5
XF498 = test system: XF498

Measured: GI50

CC(=O)Nc1ccc(Cl)c(Cl)c1
> 100 µM: HCT-15
inactive: 786-0 > 100 µM | A549 > 100 µM | ACHN > 100 µM | CCRF-CEM > 100 µM | COLO 205 > 100 µM | DLD-1 > 100 µM | DMS-114 > 100 µM | DMS-273 > 100 µM | EKVX > 100 µM | HCC 2998 > 100 µM | HCT-116 > 100 µM | HL-60 > 10 µM | HOP-62 > 100 µM | HT-29 > 100 µM | IGROV-1 > 100 µM | K562 > 100 µM | KM-20L2 > 100 µM | KM12 > 100 µM | LOX IMVI > 100 µM | LXFL 529 > 100 µM | M14 40.4 µM | M19-MEL > 100 µM | MOLT-4 > 100 µM | Malme-3M > 100 µM | NCI-H226 > 100 µM | NCI-H23 > 100 µM | NCI-H460 > 100 µM | NCI-H522 > 100 µM | OVCAR-3 > 100 µM | OVCAR-8 > 100 µM | RPMI-8226 > 100 µM | RXF 393 > 100 µM | SF-268 > 100 µM | SF-295 > 100 µM | SF-539 > 100 µM | SK-MEL-28 > 100 µM | SK-OV-3 > 100 µM | SN12C > 100 µM | SNB-19 > 100 µM | SNB-75 > 100 µM | SNB-78 > 100 µM | SR > 100 µM | SW-620 > 100 µM | TK-10 > 100 µM | U-251 > 100 µM | UACC-257 > 100 µM | UACC-62 > 100 µM | UO-31 > 100 µM

COC(=O)Cc1cc(OC)c(OC)cc1Br
inactive: 786-0 > 100 µM | A498 > 100 µM | A549 > 100 µM | ACHN > 100 µM | CAKI-1 > 100 µM | CCRF-CEM > 100 µM | COLO 205 > 100 µM | DLD-1 > 100 µM | DMS-114 > 100 µM | EKVX > 100 µM | HCC 2998 > 100 µM | HCT-116 > 100 µM | HL-60 > 100 µM | HOP-62 > 100 µM | HOP-92 > 100 µM | HT-29 > 100 µM | K562 > 100 µM | KM-20L2 > 100 µM | KM12 > 100 µM | LXFL 529 > 100 µM | M14 > 100 µM | M19-MEL > 100 µM | MOLT-4 > 100 µM | Malme-3M > 100 µM | NCI-H226 > 100 µM | NCI-H23 > 100 µM | NCI-H460 > 100 µM | NCI-H522 > 100 µM | OVCAR-3 > 100 µM | OVCAR-4 > 100 µM | OVCAR-5 > 100 µM | OVCAR-8 > 100 µM | RPMI-8226 > 100 µM | SF-268 > 100 µM | SF-295 > 100 µM | SK-MEL-28 > 100 µM | SK-MEL-2 > 100 µM | SK-OV-3 > 100 µM | SN12C > 100 µM | SNB-19 > 100 µM | SNB-75 66.4 µM | SNB-78 > 100 µM | SR > 100 µM | SW-620 > 100 µM | TK-10 > 100 µM | U-251 > 100 µM | UACC-257 > 100 µM | UACC-62 > 100 µM | UO-31 > 100 µM

CC(C)[C@@H](COC(C)(C)C)/N=C/N1CCc2c([nH]c3ccccc23)C1
> 100 µM: HCT-15
inactive: 786-0 > 100 µM | A498 > 100 µM | A549 > 100 µM | ACHN > 100 µM | CCRF-CEM > 100 µM | COLO 205 > 100 µM | DLD-1 > 100 µM | DMS-114 > 100 µM | DMS-273 > 100 µM | EKVX > 100 µM | HCC 2998 80 µM | HCT-116 > 100 µM | HL-60 > 100 µM | HOP-62 > 100 µM | HOP-92 21.5 µM | HT-29 > 100 µM | IGROV-1 > 100 µM | K562 > 100 µM | KM-20L2 > 100 µM | KM12 > 100 µM | LOX IMVI > 100 µM | LXFL 529 > 100 µM | M14 > 100 µM | MOLT-4 > 100 µM | NCI-H226 > 100 µM | NCI-H23 > 100 µM | NCI-H460 > 100 µM | NCI-H522 > 100 µM | OVCAR-3 > 100 µM | OVCAR-4 > 100 µM | OVCAR-5 > 100 µM | OVCAR-8 > 100 µM | RPMI-8226 > 100 µM | RXF 393 > 100 µM | SF-268 > 100 µM | SF-295 > 100 µM | SF-539 > 100 µM | SK-MEL-28 > 100 µM | SK-MEL-2 > 100 µM | SK-MEL-5 > 100 µM | SK-OV-3 > 100 µM | SN12C > 100 µM | SNB-19 > 100 µM | SNB-75 > 100 µM | SNB-78 > 100 µM | SW-620 > 100 µM | TK-10 > 100 µM | U-251 > 100 µM | UACC-62 > 100 µM | UO-31 84.9 µM | XF498 36.1 µM
